In PubChem BioAssay (NCI):
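Five compound concentrations were applied to cells in 96-well plates for 48 hours; endpoints were derived by simple linear interpolation of the resulting dose-response curve. TGI: concentration producing complete growth inhibition.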

Columns and labels:
Experiment in all cases: inhibition of tumour cell growth, NCI panel, 48 h
MOLT-4 leukemia = system: MOLT-4 leukemia
HT29 colon = system: HT29 colon
NCI-H23 lung = system: NCI-H23 lung
HCT-116 colon = system: HCT-116 colon
RXF 393 renal = system: RXF 393 renal
RXF-631 renal = system: RXF-631 renal
M14 melanoma = system: M14 melanoma
U251 CNS = system: U251 CNS
KM12 colon = system: KM12 colon
OVCAR-8 ovarian = system: OVCAR-8 ovarian
SK-MEL-28 melanoma = system: SK-MEL-28 melanoma
SK-MEL-2 melanoma = system: SK-MEL-2 melanoma
COLO 205 colon = system: COLO 205 colon
NCI-H460 lung = system: NCI-H460 lung
SF-268 CNS = system: SF-268 CNS
A549 NSCLC = system: A549 NSCLC
LXFL 529 NSCLC = system: LXFL 529 NSCLC
DMS 273 small cell lung = system: DMS 273 small cell lung
A498 renal = system: A498 renal
HOP-62 NSCLC = system: HOP-62 NSCLC
SK-OV-3 ovarian = system: SK-OV-3 ovarian
RPMI-8226 leukemia = system: RPMI-8226 leukemia
HCT-15 colon = system: HCT-15 colon
SN12C renal = system: SN12C renal
SNB-78 CNS = system: SNB-78 CNS
UACC-257 melanoma = system: UACC-257 melanoma
IGROV1 ovarian = system: IGROV1 ovarian
OVCAR-4 ovarian = system: OVCAR-4 ovarian
LOX IMVI melanoma = system: LOX IMVI melanoma
TK-10 renal = system: TK-10 renal
SW-620 colon = system: SW-620 colon
UACC-62 melanoma = system: UACC-62 melanoma
XF 498 CNS = system: XF 498 CNS
HCC-2998 colon = system: HCC-2998 colon
SK-MEL-5 melanoma = system: SK-MEL-5 melanoma
OVCAR-3 ovarian = system: OVCAR-3 ovarian
ACHN renal = system: ACHN renal
HL-60(TB) leukemia = system: HL-60(TB) leukemia
K-562 leukemia = system: K-562 leukemia
KM20L2 colon = system: KM20L2 colon
SF-539 CNS = system: SF-539 CNS
SNB-19 CNS = system: SNB-19 CNS
HOP-18 NSCLC = system: HOP-18 NSCLC
UO-31 renal = system: UO-31 renal
MALME-3M melanoma = system: MALME-3M melanoma
DLD-1 colon = system: DLD-1 colon
CAKI-1 renal = system: CAKI-1 renal
M19-MEL melanoma = system: M19-MEL melanoma
EKVX NSCLC = system: EKVX NSCLC
786-0 renal = system: 786-0 renal
SNB-75 CNS = system: SNB-75 CNS
CCRF-CEM leukemia = system: CCRF-CEM leukemia
SF-295 CNS = system: SF-295 CNS
DMS 114 small cell lung = system: DMS 114 small cell lung
NCI-H522 lung = system: NCI-H522 lung
OVCAR-5 ovarian = system: OVCAR-5 ovarian
SR leukemia = system: SR leukemia
HOP-92 NSCLC = system: HOP-92 NSCLC
NCI-H226 lung = system: NCI-H226 lung

CCOP(=O)(OCC)C1CCCCOC1=O (configuration not stated)
TGI (MOLT-4 leukemia): > 100 µM
TGI (HT29 colon): > 100 µM
TGI (NCI-H23 lung): > 100 µM
TGI (HCT-116 colon): > 100 µM
TGI (RXF 393 renal): > 100 µM
TGI (RXF-631 renal): > 100 µM
TGI (M14 melanoma): > 100 µM
TGI (U251 CNS): > 100 µM
TGI (KM12 colon): > 100 µM
TGI (OVCAR-8 ovarian): > 100 µM
TGI (SK-MEL-28 melanoma): > 100 µM
TGI (SK-MEL-2 melanoma): > 100 µM
TGI (COLO 205 colon): > 100 µM
TGI (NCI-H460 lung): > 100 µM
TGI (SF-268 CNS): > 100 µM
TGI (A549 NSCLC): > 100 µM
TGI (LXFL 529 NSCLC): > 100 µM
TGI (DMS 273 small cell lung): > 100 µM
TGI (A498 renal): > 100 µM
TGI (HOP-62 NSCLC): > 100 µM
TGI (SK-OV-3 ovarian): > 100 µM
TGI (RPMI-8226 leukemia): > 100 µM
TGI (HCT-15 colon): > 100 µM
TGI (SN12C renal): > 100 µM
TGI (SNB-78 CNS): > 100 µM
TGI (UACC-257 melanoma): > 100 µM
TGI (IGROV1 ovarian): > 100 µM
TGI (OVCAR-4 ovarian): > 100 µM
TGI (LOX IMVI melanoma): 40 µM
TGI (TK-10 renal): > 100 µM
TGI (SW-620 colon): > 100 µM
TGI (UACC-62 melanoma): > 100 µM
TGI (XF 498 CNS): > 100 µM
TGI (HCC-2998 colon): > 100 µM
TGI (SK-MEL-5 melanoma): > 100 µM
TGI (OVCAR-3 ovarian): > 100 µM
TGI (ACHN renal): > 100 µM
TGI (HL-60(TB) leukemia): > 100 µM
TGI (K-562 leukemia): > 100 µM
TGI (KM20L2 colon): > 100 µM
TGI (SF-539 CNS): > 100 µM
TGI (SNB-19 CNS): > 100 µM
TGI (HOP-18 NSCLC): > 100 µM
TGI (UO-31 renal): > 100 µM
TGI (MALME-3M melanoma): > 100 µM
TGI (DLD-1 colon): > 100 µM
TGI (CAKI-1 renal): > 100 µM
TGI (M19-MEL melanoma): > 100 µM
TGI (EKVX NSCLC): > 100 µM
TGI (786-0 renal): > 100 µM
TGI (SNB-75 CNS): > 100 µM
TGI (CCRF-CEM leukemia): > 100 µM
TGI (SF-295 CNS): > 100 µM
TGI (DMS 114 small cell lung): > 100 µM

C=CCONC(=O)c1ccc(Cl)cc1
TGI (MOLT-4 leukemia): > 100 µM
TGI (HT29 colon): > 100 µM
TGI (NCI-H23 lung): > 100 µM
TGI (HCT-116 colon): > 100 µM
TGI (RXF 393 renal): > 100 µM
TGI (RXF-631 renal): > 100 µM
TGI (M14 melanoma): > 100 µM
TGI (NCI-H522 lung): > 100 µM
TGI (U251 CNS): > 100 µM
TGI (KM12 colon): > 100 µM
TGI (OVCAR-8 ovarian): > 100 µM
TGI (SK-MEL-28 melanoma): > 100 µM
TGI (SK-MEL-2 melanoma): > 100 µM
TGI (COLO 205 colon): > 100 µM
TGI (NCI-H460 lung): > 100 µM
TGI (SF-268 CNS): > 100 µM
TGI (A549 NSCLC): > 100 µM
TGI (LXFL 529 NSCLC): > 100 µM
TGI (A498 renal): > 100 µM
TGI (HOP-62 NSCLC): > 100 µM
TGI (SK-OV-3 ovarian): > 100 µM
TGI (RPMI-8226 leukemia): > 100 µM
TGI (HCT-15 colon): > 100 µM
TGI (SN12C renal): > 100 µM
TGI (SNB-78 CNS): > 100 µM
TGI (OVCAR-5 ovarian): > 100 µM
TGI (UACC-257 melanoma): > 100 µM
TGI (IGROV1 ovarian): > 100 µM
TGI (SR leukemia): > 100 µM
TGI (OVCAR-4 ovarian): > 100 µM
TGI (LOX IMVI melanoma): > 100 µM
TGI (TK-10 renal): > 100 µM
TGI (SW-620 colon): > 100 µM
TGI (UACC-62 melanoma): > 100 µM
TGI (XF 498 CNS): > 100 µM
TGI (HCC-2998 colon): > 100 µM
TGI (SK-MEL-5 melanoma): > 100 µM
TGI (ACHN renal): > 100 µM
TGI (HL-60(TB) leukemia): > 100 µM
TGI (K-562 leukemia): > 100 µM
TGI (KM20L2 colon): > 100 µM
TGI (SF-539 CNS): > 100 µM
TGI (SNB-19 CNS): > 100 µM
TGI (HOP-18 NSCLC): > 100 µM
TGI (UO-31 renal): > 100 µM
TGI (MALME-3M melanoma): > 100 µM
TGI (DLD-1 colon): > 100 µM
TGI (CAKI-1 renal): > 100 µM
TGI (M19-MEL melanoma): > 100 µM
TGI (EKVX NSCLC): > 100 µM
TGI (786-0 renal): > 100 µM
TGI (SNB-75 CNS): > 100 µM
TGI (HOP-92 NSCLC): > 100 µM
TGI (CCRF-CEM leukemia): > 100 µM
TGI (SF-295 CNS): > 100 µM
TGI (DMS 114 small cell lung): > 100 µM

O=C(CC1Sc2ccccc2NC1=O)Nc1cc(Cl)ccc1Cl (configuration not stated)
TGI (MOLT-4 leukemia): > 100 µM
TGI (HT29 colon): > 100 µM
TGI (NCI-H23 lung): > 100 µM
TGI (HCT-116 colon): > 100 µM
TGI (RXF 393 renal): > 100 µM
TGI (RXF-631 renal): > 100 µM
TGI (M14 melanoma): > 100 µM
TGI (U251 CNS): > 100 µM
TGI (OVCAR-8 ovarian): > 100 µM
TGI (SK-MEL-28 melanoma): > 100 µM
TGI (SK-MEL-2 melanoma): > 100 µM
TGI (NCI-H460 lung): > 100 µM
TGI (SF-268 CNS): > 100 µM
TGI (A549 NSCLC): > 100 µM
TGI (LXFL 529 NSCLC): > 100 µM
TGI (NCI-H226 lung): > 100 µM
TGI (DMS 273 small cell lung): > 100 µM
TGI (A498 renal): > 100 µM
TGI (RPMI-8226 leukemia): > 100 µM
TGI (HCT-15 colon): > 100 µM
TGI (SN12C renal): > 100 µM
TGI (SNB-78 CNS): > 100 µM
TGI (OVCAR-5 ovarian): > 100 µM
TGI (UACC-257 melanoma): > 100 µM
TGI (IGROV1 ovarian): > 100 µM
TGI (SR leukemia): 82.1 µM
TGI (OVCAR-4 ovarian): > 100 µM
TGI (LOX IMVI melanoma): > 100 µM
TGI (TK-10 renal): > 100 µM
TGI (SW-620 colon): > 100 µM
TGI (UACC-62 melanoma): > 100 µM
TGI (HCC-2998 colon): > 100 µM
TGI (SK-MEL-5 melanoma): > 100 µM
TGI (OVCAR-3 ovarian): > 100 µM
TGI (ACHN renal): > 100 µM
TGI (HL-60(TB) leukemia): > 100 µM
TGI (K-562 leukemia): > 100 µM
TGI (KM20L2 colon): > 100 µM
TGI (SF-539 CNS): > 100 µM
TGI (SNB-19 CNS): > 100 µM
TGI (UO-31 renal): > 100 µM
TGI (MALME-3M melanoma): > 100 µM
TGI (DLD-1 colon): > 100 µM
TGI (CAKI-1 renal): > 100 µM
TGI (M19-MEL melanoma): > 100 µM
TGI (EKVX NSCLC): > 100 µM
TGI (786-0 renal): > 100 µM
TGI (SNB-75 CNS): > 100 µM
TGI (HOP-92 NSCLC): > 100 µM
TGI (CCRF-CEM leukemia): > 100 µM
TGI (SF-295 CNS): > 100 µM
TGI (DMS 114 small cell lung): > 100 µM
